The source of these data is paper PMC3546527 (MedChemComm, 2012).

For the assay, the target named is HK853 (Thermotoga maritima, UniProt Q9WZV7). In words: STD-NMR. The class given is binding.

As for `Nc1ncnc2c1ncn2[C@@H]1O[C@H](COP(=O)(O)OP(=O)(O)O)[C@@H](O)[C@H]1O` [ADP], the “f STD ^a” value is recorded as 73.3.
